In PMC10683025, “Discovery of a Hydroxylamine-Based Brain-Penetrant EGFR Inhibitor for Metastatic Non-Small-Cell Lung Cancer” (Journal of Medicinal Chemistry, 2023):
Converted amounts (≈) assume the structure as drawn. Like-named read-outs stand apart in the source and are kept apart here.

Tests used:
[1] = parameters: method as in ref 56−59; settings: ref 56−59; cited from earlier work
[2] = system: NCI-H3255 (EGFR mutation = L858R); test: CellTiter-Glo cell viability assay; assay type: cell-based, human; settings: 72 h, unadjusted for FBS
[3] = system: Ba/F3 EGFR-L858R/C797S cells; test: CellTiter-Glo cell viability assay; assay type: cell-based; settings: 72 h, unadjusted for FBS
Procedure: (§1) The A431, HCC827, SK-BR-3, ZR-75–30, AU565, and Caco-2 cell lines were obtained from ATCC. The NCI-H1975 cell line was obtained from SIBS. The NCI-H3255 cell line was obtained from CoBioer. Engineered Ba/F3 cell lines were obtained from Crown Bioscience. MCKII-MDR1 cells were obtained from The Netherlands Cancer Institute. HEK293 cells were obtained from Invitrogen. A431 cells were cultured in DMEM (Life Technologies) with 10% FBS. HCC827, NCI-H1975, and AU565 cells were cultured in RPMI1640 (Invitrogen) with 10% FBS. NCI-H3255 cells were cultured in BEGM (Lonza) with 10% FBS. Ba/F3 EGFR-del E746_A750/C797S and Ba/F3 EGFR-L858R/C797S cells were cultured in RPMI (Invitrogen) with 10% FBS. SK-BR-3 cells were cultured in McCoy’s 5a (Invitrogen) with 10% FBS. ZR-75-30 cells were cultured in RPMI1640 (Invitrogen) with 20% FBS. Caco-2 and MCKII-MDR1 culture information is given in the Permeability Studies section. HEK293 cells were cultured in DMEM (Gibco) with 10% FBS, 0.1 mM NEAA, 25 mM HEPES, 100 U/mL penicillin-streptomycin, μg/mL blasticidin, and 400 μg/mL Geneticin. All cells were cultured in a humidified incubator with 5% CO2 at 37 °C.
(§2) Viability assays using A431, HCC827, NCI-H1975, NCI-H3255, Ba/F3 EGFR-del E746_A750/C797S, Ba/F3 EGFR-L858R/C797S, AU565, SK-BR-3, and ZR-75-30 cells were performed at Crown BioScience. Cells were plated into 96-well plates at 1500–7000 cells per well and dosed in triplicate (n = 3) in a nine-point, 4-fold dilution series with compounds (0.15 nM to 10 μM) in DMSO and incubated for 72 h. After 72 h, cell viability was assayed by CellTiter-Glo Luminescent Viability Assay (Promega). Dose–response curves were generated and used to calculate the IC50 values which were calculated on GraphPad Prism from the nonlinear regression equation fitted with a sigmoidal dose response and are presented as mean ± SEM.

[4] = system: Ba/F3 EGFR-del E746_A750/C797S cells; test: CellTiter-Glo cell viability assay; assay type: cell-based; settings: 72 h, unadjusted for FBS
Procedure: as §1, §2

[5] = system: HCC827 (EGFR mutation = exon19del); test: CellTiter-Glo cell viability assay; assay type: cell-based, human; settings: 72 h, unadjusted for FBS
[6] = system: AU565 (HER2-positive breast cancer); test: CellTiter-Glo cell viability assay; assay type: cell-based, human; settings: 72 h, unadjusted for FBS
Procedure: as §1, §2

[7] = system: SK-BR-3 (HER2-positive breast cancer); test: CellTiter-Glo cell viability assay; assay type: cell-based, human; settings: 72 h, unadjusted for FBS
Procedure: as §1, §2

[8] = system: A431 cell line (overexpressed EGFRwt); test: CellTiter-Glo cell viability assay; assay type: cell-based, human; settings: 72 h, unadjusted for FBS
Procedure: as §1, §2

[9] = system: NCI-H1975 (EGFR mutation = L858R/T790M); test: CellTiter-Glo cell viability assay; assay type: cell-based, human; settings: 72 h, unadjusted for FBS
Procedure: as §1, §2

[10] = system: ZR-75-30 (HER2-positive breast cancer); test: CellTiter-Glo cell viability assay; assay type: cell-based, human; settings: 72 h, unadjusted for FBS
Procedure: as §1, §2

[11] = target: T1, EGFR del E746_A750 (Homo sapiens, UniProt P00533, DEL746-750); test: KINOMEScan KdELECT Kd determination; assay type: binding
T1 construct: purchased Eurofins DiscoverX (contract assay)
T1 sequence (P00533 with tags, fused parts or gaps DEL746-750): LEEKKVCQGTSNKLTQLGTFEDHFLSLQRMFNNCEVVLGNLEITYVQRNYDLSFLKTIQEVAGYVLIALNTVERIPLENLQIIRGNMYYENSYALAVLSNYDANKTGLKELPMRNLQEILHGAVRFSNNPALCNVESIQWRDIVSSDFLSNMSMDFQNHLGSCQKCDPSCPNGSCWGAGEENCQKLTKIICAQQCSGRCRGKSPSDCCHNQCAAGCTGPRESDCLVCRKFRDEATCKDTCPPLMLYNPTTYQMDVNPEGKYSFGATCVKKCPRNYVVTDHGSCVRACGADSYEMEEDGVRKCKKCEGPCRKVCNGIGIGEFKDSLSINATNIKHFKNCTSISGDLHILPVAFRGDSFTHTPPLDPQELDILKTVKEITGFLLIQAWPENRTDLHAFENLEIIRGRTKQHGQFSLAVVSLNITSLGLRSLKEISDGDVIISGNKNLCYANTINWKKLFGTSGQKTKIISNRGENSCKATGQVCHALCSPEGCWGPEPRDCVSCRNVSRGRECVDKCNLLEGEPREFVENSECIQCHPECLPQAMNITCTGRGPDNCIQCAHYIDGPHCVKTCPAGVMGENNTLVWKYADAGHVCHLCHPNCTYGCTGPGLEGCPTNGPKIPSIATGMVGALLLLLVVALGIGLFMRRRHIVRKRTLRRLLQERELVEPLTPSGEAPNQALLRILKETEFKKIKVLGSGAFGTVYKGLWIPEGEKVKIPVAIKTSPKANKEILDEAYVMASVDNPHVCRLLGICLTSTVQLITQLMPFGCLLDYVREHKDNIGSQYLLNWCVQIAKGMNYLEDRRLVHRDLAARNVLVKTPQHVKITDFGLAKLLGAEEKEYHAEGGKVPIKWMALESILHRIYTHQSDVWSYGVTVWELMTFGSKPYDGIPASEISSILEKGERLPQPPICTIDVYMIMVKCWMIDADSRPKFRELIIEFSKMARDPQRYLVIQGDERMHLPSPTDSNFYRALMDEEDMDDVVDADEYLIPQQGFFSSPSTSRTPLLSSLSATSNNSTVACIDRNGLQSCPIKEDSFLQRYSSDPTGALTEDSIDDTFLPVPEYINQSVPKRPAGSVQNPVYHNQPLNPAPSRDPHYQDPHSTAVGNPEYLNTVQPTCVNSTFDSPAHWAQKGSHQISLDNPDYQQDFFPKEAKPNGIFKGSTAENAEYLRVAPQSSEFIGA

[12] = Metabolic stability in liver microsomes; assay type: in vitro ADME, human; settings: for Remaining Percentage: human LM
[13] = target: T2, EGFRL858R (Homo sapiens, UniProt P00533, L858R); test: KINOMEScan KdELECT Kd determination; assay type: binding; parameters: purchased Eurofins DiscoverX (contract assay); settings: L858R
T2 sequence (P00533 25-1210 L858R): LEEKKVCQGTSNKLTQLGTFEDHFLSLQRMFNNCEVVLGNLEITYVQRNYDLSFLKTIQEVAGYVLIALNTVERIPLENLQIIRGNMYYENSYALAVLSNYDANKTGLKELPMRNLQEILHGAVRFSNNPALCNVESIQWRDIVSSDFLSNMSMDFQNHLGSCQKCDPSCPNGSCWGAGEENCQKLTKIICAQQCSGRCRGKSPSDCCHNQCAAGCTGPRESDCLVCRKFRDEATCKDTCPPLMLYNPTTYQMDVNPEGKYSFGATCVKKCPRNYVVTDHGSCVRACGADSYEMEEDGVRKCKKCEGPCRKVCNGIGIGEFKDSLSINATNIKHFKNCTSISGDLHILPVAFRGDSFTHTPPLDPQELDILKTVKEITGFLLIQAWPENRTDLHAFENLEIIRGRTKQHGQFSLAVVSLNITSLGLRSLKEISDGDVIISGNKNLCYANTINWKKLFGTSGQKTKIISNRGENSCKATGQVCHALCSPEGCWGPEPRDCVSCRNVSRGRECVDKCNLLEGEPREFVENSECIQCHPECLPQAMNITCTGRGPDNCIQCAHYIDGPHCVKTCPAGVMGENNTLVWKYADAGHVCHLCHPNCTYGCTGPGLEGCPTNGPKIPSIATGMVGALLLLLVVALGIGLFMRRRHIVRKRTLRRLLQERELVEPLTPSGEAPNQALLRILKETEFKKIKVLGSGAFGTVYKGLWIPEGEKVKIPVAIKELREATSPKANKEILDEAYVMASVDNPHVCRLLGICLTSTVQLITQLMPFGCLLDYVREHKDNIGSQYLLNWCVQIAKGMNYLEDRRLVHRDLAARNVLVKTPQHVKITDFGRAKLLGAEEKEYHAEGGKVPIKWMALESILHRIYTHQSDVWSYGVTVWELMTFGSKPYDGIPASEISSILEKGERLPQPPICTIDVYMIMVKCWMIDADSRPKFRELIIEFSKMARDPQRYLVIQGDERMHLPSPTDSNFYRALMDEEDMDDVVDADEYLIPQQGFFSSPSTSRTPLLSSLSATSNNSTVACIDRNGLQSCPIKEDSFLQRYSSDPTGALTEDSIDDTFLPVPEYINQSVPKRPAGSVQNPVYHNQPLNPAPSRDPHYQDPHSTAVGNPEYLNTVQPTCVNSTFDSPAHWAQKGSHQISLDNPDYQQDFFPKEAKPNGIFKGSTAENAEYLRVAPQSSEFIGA

[14] = Caco-2 permeability; assay type: in vitro ADME; settings: human; for recovery at 2 h, 5 μM: Caco-2, Caco-2
[15] = MDCKII-MDR1 permeability; assay type: in vitro ADME, canine; settings: dog, MDCK-MDR1, MDCKII-MDR1
[16] = system: MDR1; test: MDCKII-MDR1 permeability; assay type: in vitro ADME, canine; settings: dog, MDCK-MDR1
[17] = target: T3, EGFRwt (Homo sapiens, UniProt P00533); test: KINOMEScan KdELECT Kd determination; assay type: binding; settings: wt; read-out: EGFR Kd
T3 construct: purchased Eurofins DiscoverX (contract assay)
T3 sequence (P00533 25-1210): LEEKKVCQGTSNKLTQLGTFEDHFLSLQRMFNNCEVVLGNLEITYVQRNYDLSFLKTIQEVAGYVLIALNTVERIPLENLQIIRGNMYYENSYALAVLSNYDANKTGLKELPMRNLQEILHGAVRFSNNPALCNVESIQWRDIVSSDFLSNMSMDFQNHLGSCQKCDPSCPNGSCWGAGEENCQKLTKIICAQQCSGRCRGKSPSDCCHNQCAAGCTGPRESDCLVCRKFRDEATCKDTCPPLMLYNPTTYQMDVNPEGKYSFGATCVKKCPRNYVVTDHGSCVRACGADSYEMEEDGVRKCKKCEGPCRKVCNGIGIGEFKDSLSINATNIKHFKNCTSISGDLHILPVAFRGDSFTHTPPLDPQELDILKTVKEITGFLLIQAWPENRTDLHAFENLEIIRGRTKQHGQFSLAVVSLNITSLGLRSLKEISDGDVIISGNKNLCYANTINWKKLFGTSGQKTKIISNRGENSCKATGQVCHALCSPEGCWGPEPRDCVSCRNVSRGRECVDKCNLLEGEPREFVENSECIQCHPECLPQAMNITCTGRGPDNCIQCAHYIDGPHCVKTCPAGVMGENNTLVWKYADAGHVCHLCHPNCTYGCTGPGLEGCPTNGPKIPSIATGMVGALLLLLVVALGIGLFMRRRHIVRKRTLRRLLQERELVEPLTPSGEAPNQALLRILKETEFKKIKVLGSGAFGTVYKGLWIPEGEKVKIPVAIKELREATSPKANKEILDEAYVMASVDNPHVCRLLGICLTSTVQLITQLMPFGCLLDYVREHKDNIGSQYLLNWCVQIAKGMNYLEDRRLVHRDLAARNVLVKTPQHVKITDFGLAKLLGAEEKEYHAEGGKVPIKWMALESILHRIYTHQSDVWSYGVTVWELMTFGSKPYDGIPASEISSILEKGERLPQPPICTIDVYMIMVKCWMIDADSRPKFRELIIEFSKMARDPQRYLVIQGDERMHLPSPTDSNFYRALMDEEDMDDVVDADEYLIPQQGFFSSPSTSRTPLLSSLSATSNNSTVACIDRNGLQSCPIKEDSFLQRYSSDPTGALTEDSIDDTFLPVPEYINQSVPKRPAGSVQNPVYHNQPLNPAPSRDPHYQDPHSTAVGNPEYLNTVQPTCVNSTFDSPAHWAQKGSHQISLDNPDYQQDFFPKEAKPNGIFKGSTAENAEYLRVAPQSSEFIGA

[18] = target: T2, EGFRL858R; test: KinaseProfiler enzymatic radiometric assay; assay type: biochemical; parameters: purchased Eurofins Cerep (KinaseProfiler, contract assay); settings: ATP 10 μM, read-out: EGFR IC50
[19] = target: T3, EGFRwt; test: KinaseProfiler enzymatic radiometric assay; assay type: biochemical; settings: wt, ATP 10 μM; read-out: EGFR IC50
[20] = Lipophilicity, shake-flask; assay type: physicochemical; settings: 1-octanol/PBS; 1-octanol and PBS (pH 7.4); read-out: logD7.4
Procedure: Compound lipophilicity was determined by Pharmaron, Inc. using the shake-flask method with 1-octanol and PBS (pH 7.4). Each compound was assessed in duplicate (n = 2) at 1 μM in a 96-well plate shaken at 25 °C and 2000 rpm for 2 h. Samples were analyzed by liquid chromatography and tandem mass spectrometry (LC-MS/MS).

[21] = Metabolic stability in liver microsomes; assay type: in vitro ADME, Sprague-Dawley rat; settings: for Remaining Percentage: rat LM
[22] = Solubility assay; assay type: physicochemical; settings: buffer, pH 7.4, aqueous buffer; read-out: Aq. Sol.
Procedure: Solubility was determined by Pharmaron, Inc. and each compound was assessed in duplicate (n = 2) by adding 15 μL of compound stock solution (10 mM in DMSO) into a 96-well plate along with 485 μL of buffer followed by shaking at 25 °C, 1100 rpm for 2 h. Wells were filtered, and samples (5 μL) were taken followed by dilution with an equal volume of DMSO (5 μL) and 490 μL of aqueous solution. Samples were analyzed by LC-MS/MS.

Structure (SMILES): COc1cc2ncnc(Nc3cccc(Cl)c3F)c2cc1OC(=O)N1CCN(C)C[C@H]1C [AZD3759]
- Kp,uu brain (AUC0-7h) [1]: 1.3

Structure (SMILES): N.N.[Cl][Pt][Cl] [Cisplatin, reference compound]
- IC50 [2]: > 10000 nM
- IC50 [3]: 411 ± 10 nM
- IC50 [4]: 361 ± 15 nM
- IC50 [5]: > 10000 nM
- IC50 [6]: 2570 nM
- IC50 [7]: 1960 nM
- IC50 [8]: 4150 nM
- IC50 [9]: 8800 nM
- IC50 [10]: 4180 nM

Structure (SMILES): COc1cc2ncnc(Nc3ccc(F)c(Cl)c3)c2cc1OCCON1CCN(C)CC1 [Compound 8, N-(3-Chloro-4-fluorophenyl)-7-methoxy-6-(2-((4-methylpiperazin-1-yl)oxy)ethoxy)quinazolin-4-amine]
- Kd [11]: 0.4 nM
- Remaining Percentage ([12]; +Cofactors, 15 min): 60.04%
- Remaining Percentage ([12]; +Cofactors, 30 min): 39.49%
- Remaining Percentage ([12]; +Cofactors, 45 min): 24.83%
- Remaining Percentage ([12]; +Cofactors, 60 min): 20.34%
- Remaining Percentage ([12]; -Cofactors, 60 min): 95.02%
- half-life at 1 h, 1 µM ([12]; human, liver microsomes, read-out: LM t1/2): 25.4 min
- microsomal CLint at 1 h, 1 µM ([12]; human, liver microsomes, read-out: LMClint): 55 µL/min/mg
- IC50 ([2]; Homo sapiens, NCI-H3255): 37 nM
- Kd [13]: 0.6 nM
- IC50 ([5]; Homo sapiens, HCC827): 15 nM
- efflux ratio at 2 h, 5 µM ([14]; Caco-2): 20.2
- efflux ratio at 2 h, 5 μM ([14]; Caco-2): 19.3
- recovery at 2 h, 5 μM ([14]; read-out: Recovery% (AP-BL)): 63.3%
- recovery at 2 h, 5 μM ([14]; read-out: Recovery% (BL-AP)): 72.3%
- Papp A→B at 2 h, 5 µM ([14]; Caco-2, 5 μM, 2 h): 0.6 ×10⁻⁶ cm/s
- Papp A→B at 2 h, 5 μM ([14]; Caco-2, 5 μM, 2 h): 0.63 ×10⁻⁶ cm/s
- Papp B→A at 2 h, 5 µM ([14]; Caco-2, 5 μM, 2 h): 12.1 ×10⁻⁶ cm/s
- recovery at 2 h, 1 μM ([15]; read-out: Recovery% (AP-BL)): 58.6%
- recovery at 2 h, 1 μM ([15]; read-out: Recovery% (BL-AP)): 76.1%
- efflux ratio at 2 h, 1 µM [16]: 8.7
- efflux ratio at 2 h, 1 μM [16]: 8.65
- Papp A→B at 2 h, 1 µM ([16]; 1 μM, 2 h): 1.4 ×10⁻⁶ cm/s
- Papp A→B at 2 h, 1 μM ([16]; 1 μM, 2 h): 1.35 ×10⁻⁶ cm/s
- Papp B→A at 2 h, 1 µM ([16]; 1 μM, 2 h): 11.7 ×10⁻⁶ cm/s
- Papp B→A at 2 h, 1 μM ([16]; 1 μM, 2 h): 11.7 ×10⁻⁶ cm/s
- Kd [17]: 0.8 nM
- IC50 [18]: 2 nM
- IC50 [19]: 3 nM
- logD at 2 h, 1 µM [20]: 3.3
- half-life at 1 h, 1 µM ([21]; Sprague-Dawley, rat, liver microsomes, read-out: LM t1/2): 22.4 min
- microsomal CLint at 1 h, 1 µM ([21]; Sprague-Dawley, rat, liver microsomes, read-out: LMClint): 62 µL/min/mg
- Remaining Percentage ([21]; +Cofactors, 15 min): 58.02%
- Remaining Percentage ([21]; +Cofactors, 30 min): 32.28%
- Remaining Percentage ([21]; +Cofactors, 45 min): 22.82%
- Remaining Percentage ([21]; +Cofactors, 60 min): 15.90%
- Remaining Percentage ([21]; -Cofactors, 60 min): 97.68%
- solubility kinetic at 2 h [22]: 18 µM (≈ 8.31 µg/mL)

Structure (SMILES): Fc1c(Br)cccc1Nc1ncnc2cc3c(cc12)OCCO3 [JCN037]
- Kp,uu brain (AUC0-7h) [1]: 1.3
